{"source": "patent US10598667B2", "about": "“Functional illumination in living cells” (The Regents of the University of California, priority 2013, dated 2020)", "key": {"[1]": {"assay": "Sequential screening of PDMS affixed OBOC bead array with three dyes", "type": "binding", "conditions": "100 μM dye in PBS, three dyes incubated sequentially on the same bead array", "protocol": "Silicon Elastomer Base was mixed completely with Silicone Elastomer Curing Agent at ratio 10:1 in volume and the solution was kept in vacuum container for 15 to 20 minutes to eliminate the gas bubbles formed during the mixing process. After the removal of all residual bubbles, approximately 0.5-1 mL of PDMS solution was added into the bottom of a 60 mm culture dish. The dish was then spun on a single wafer spin processor (Laurell Technologies Corporation®, model WS-6505-6NPP/Lite) to evenly distribute the solution over the plates, at a speed of 4000 rpm for 30 s. A 5 μm layer of PDMS was formed on the bottom of dish and was cured at 80° C. for 5 min or at room temperature for 24 hrs to allow for beads immobilization. Knowing that the PDMS coating was about 5 μm thick and the radius of bead was around 45 μm, the percentage of free bead surface area was estimated by the formula of [1-2πrh/4πr^2]×100% (h=thickness of PDMS layer; r=radius of bead) to be approximately 95%. The library beads resuspended in 70% ethanol solution were first randomly placed on the surface of a glass plate that was 10% smaller than the dish used in the experiment. After the ethanol evaporated, a syringe needle was used to adjust the dry beads to evenly redistribute beads on the glass surface. Then the dish was inverted and the PDMS layer was pressed down onto the glass plate with beads. The library beads were embedded partly inside the PDMS layer.\n(§1) Dye solutions were prepared in PBS to a 100 μM final concentration and 5 mL of each dye solution were added into the 60 mm dish with beads. Three dyes were tested sequentially. The dish was kept swirling at 60 rpm on the rotator. The dye binding was monitored for 90 minutes, and then the dye solution was removed from the dishes and PBS was added to rinse the beads on the bottom to remove the color dye. The PBS solution was changed every 30 min and the dish was always swirled as above. The beads color change was also observed and recorded at certain time interval during the whole wash process to collect data of color dissociation. Before adding the next dye solution, beads were washed with 70% ethanol to completely remove residual dye and were rinsed with PBS solution three times afterwards.\n(§2) A representative positive bead for each color was selected for the color binding and dissociation study. A series of images were taken at different time points during the binding and washing process. From the images taken, regions of interest (ROI) with the same size were picked up from the color beads and colorless control beads. The value from the control bead was subtracted from the color bead to get quantitated color value for each single color bead. The measure of the color intensity for each color dye was performed using the Kodak Image Station 2000MM.\nThe PDMS affixed bead array was incubated with three different dyes sequentially. […] Eleven beads were selected for further analysis based on their characteristic binding profiles (FIG. 2). […] The amino acid sequences of the peptides bound to the beads were determined (Table 1)."}, "[2]": {"assay": "Real time association and dissociation of dye to bead (color intensity)", "type": "binding", "protocol": "as §1, §2\n(§3) With the PDMS affixed bead method, it is possible to dynamically observe the peptide-dye interaction on each individual immobilized bead in real time. To further characterize the binding profile for each of the target/sequence interactions, beads #1, #4 and #10 were selected for binding and dissociation study with each respective target dye, by measuring the intensity of the resulting color accumulation on the bead surface at different time points. The values obtained for color intensity across progressing time points were plotted and the profiles for the three dye/bead interactions were compared. The association and dissociation rate of each organic dye to its respective binding peptide was evaluated. […]"}, "[3]": {"assay": "Histone H2 tail OBOC library screening with DMHBI", "type": "binding", "conditions": "library peptide fused to N-terminal H2", "protocol": "An OBOC combinatorial library was prepared for the development of GESIs for probing histone H2 tail. The library design is shown in FIG. 20C, wherein X represents all 20 eukaryotic amino acids except for cysteine; all possible post-translational modification states of Ser-1 and Lys-5 are incorporated; and additional Xs at the N-terminus of the histone tail will provide necessary capturing residues for fluorescent dyes."}, "[4]": {"assay": "Fluorescent activation of MG by peptide compared with LTA2 and LTA10", "type": "binding", "conditions": "preliminary data", "excerpt": "We expect to generate a toolbox of functional illuminant peptides that can be used in a broad range of biological applications. Translating the peptides identified in aim 1 to highly sensitive and specific functional illuminants in living cells, however, is more challenging. In this proposal, we will characterize the utility of these peptides in live cells with an emphasis on phosphorylation (Aim 2) and histone epigenetics (Aim 3). As indicated above, we plan to design and synthesize a series of dyes candidates for GESI development. We are cognizant that many organic dyes bind non-specifically to many proteins, but usually at rather high concentration (mM). […] It is also important to realize that not all binding events will activate fluorescence. […] This works in our favor as not all non-specific binding (if there is any) will lead to activation of the dyes. One concern that the previous reviewers have was the large number of Trp in our initial leads (e.g. LTA2 and LTA10). As shown in the preliminary data, many strong activators for MG have low number of Trp. For example, fluorescent activation of MG by LRRAS(P)LFYGMWYPST (SEQ ID NO:227), with only 1 Trp, is 4-5× brighter than that of LTA2 and LTA10."}, "[5]": {"assay": "Real time association and dissociation of dye to bead (color intensity)", "type": "binding", "protocol": "as §1, §2, §3", "remark": "listed apart in the source"}, "[6]": {"assay": "Fluorescence titration of peptide in solution with MG, 2 mM Ca2+, 650 nm", "type": "binding", "protocol": "(§4) Two peptides that can activate MG with or without calcium sensitivity were selected for further characterization. A solution form of the two peptides were synthesized and titrated with MG in the presence of 2 mM Ca^2+. Fluorescent signal at 650 nm was measured. […] Computational modeling confirmed stably folded structure of peptide 12 upon MG binding, preventing intramolecular motions of MG (FIG. 8B, FIG. 10A, B). […] The immobilized peptides on TentaGel beads were then titrated with an increasing amount of MG in the presence and absence of 2 mM Ca^2+. Fluorescent emission at 650 nm by each individual bead was measured. […] Computational modeling further confirmed that stably folded structure of peptide 2 only forms upon calcium binding (FIG. 11B)."}, "[7]": {"assay": "Titration of immobilized peptides on TentaGel beads with MG in presence and absence of 2 mM Ca2+", "type": "binding", "conditions": "presence vs absence of 2 mM Ca2+, peptide on bead", "protocol": "as §4"}, "HEK293 cells": {"test_system": "HEK293 cells", "assay": "Dual-color confocal imaging of Cerulean-linker-peptide fusion proteins with MG and acetylcholine", "type": "cell-based", "excerpt": "To evaluate the utility of lead peptides in mammalian cells, individual peptide tags were fused to the C-terminus of a cyan fluorescence protein (Cerulean 3) anchored on the plasma membrane. An amino acid linker (GGSGSGGS: SEQ ID NO:33) was placed between C-terminus of Cerulean and the peptide to increase the solubility and stability of the recombinant fusion proteins. Goals for the design of fusion proteins are two-folds. First, the labeling ability of peptides can be readily detected by co-localization of both cyan and infrared fluorescence. Second, the calcium sensing ability of peptide can be tested by taking advantage of endogenous acetylcholine (Ach) receptors; Ach stimulus leads to transient calcium influx in cytosol, which may lead to increased MG fluorescence. Given the limited membrane permeability of MG, a relative high concentration of MG (5×10^−7 M) was used for the imaging assay. 48 hrs post-transfection, time-lapse, dual-color confocal fluorescence microscopy images were taken upon MG incubation, followed by Ach addition. […] The fluorescence intensity reached plateau within seconds and remains stable during the 10 mins period of imaging window. In contrast, no apparent infrared fluorescence was observed when membrane-anchored Cerulean control (without grafted peptide) was expressed upon MG addition (FIG. 15A). […]"}, "[8]": {"assay": "MG binding of peptide ligands from screening and their derivatives", "design": "key to MG binding: −: no binding; +: weak binding; ++: mild binding; +++: strong binding; ++++: very strong binding", "conditions": "11 hour incubation with 5 μM MG in PBS buffer (pH 7.4)"}}, "note": "“Also recorded” adds a separate entry of the source. Like-named read-outs stand apart in the source and are kept apart here. Where no end group is shown, it is not given here. [ ]: non-standard residue; d: D form. pS = N[C@@H](COP(=O)(O)O)C(=O)O"}
{"substance": "CHTHILC (not fully specified (bridges); cysteine pairing not given here; also: bead-bound) [Bead #4]", "values": [{"measurement": "Dye binding", "setting": "[1]; listed as # 4", "value": "Bromocresol"}, {"measurement": "Dye binding", "setting": "[1]; listed as #4", "value": "only bind to bromocresol purple; also recorded: bind only to bromocresol purple"}, {"measurement": "Time to maximum color binding", "setting": "[2]; bead incubated with bromocresol purple", "value": "around 75 minutes"}, {"measurement": "Time until color disappeared (dissociation)", "setting": "[2]; washing", "value": "≤ 72", "unit": "h"}]}
{"substance": "VWDGIRS(P)GRGK(Ac) (VWDGIR[pS]GRGK(Ac))", "values": [{"measurement": "DMHBI activation", "setting": "[3]", "value": "DMHBI activating"}]}
{"substance": "TRPSMWS(P)GRGK(Ac) (TRPSMW[pS]GRGK(Ac))", "values": [{"measurement": "DMHBI activation", "setting": "[3]", "value": "DMHBI activating"}]}
{"substance": "LRRAS(P)LFYGMWYPST (LRRA[pS]LFYGMWYPST)", "values": [{"measurement": "Fluorescent activation of MG, brightness relative to LTA2 and LTA10", "setting": "[4]", "value": "4-5 ×"}]}
{"substance": "CKWILPC (not fully specified (bridges); cysteine pairing not given here; also: bead-bound) [Bead #10]", "values": [{"measurement": "Dye binding", "setting": "[1]; listed as #10", "value": "bind to both indigo carmine and bromocresol purple"}, {"measurement": "Time until colorization was seen", "setting": "[5]; bead incubated with indigo carmine", "value": "within five minutes"}, {"measurement": "Time until color completely gone (dissociation)", "setting": "[5]; washing with PBS", "value": 20, "unit": "min"}, {"measurement": "Binding and dissociation rates compared with indigo carmine", "setting": "[2]; bromocresol purple", "value": "much slower"}]}
{"substance": "CNSPDIC (not fully specified (bridges); cysteine pairing not given here; also: bead-bound) [Bead #1]", "values": [{"measurement": "Dye binding", "setting": "[1]; listed as # 1", "value": "Malachite green"}, {"measurement": "Dye binding", "setting": "[1]; listed as #1", "value": "only bind to malachite green; also recorded: bind only to malachite green"}, {"measurement": "Time after which color had not completely diminished (dissociation)", "setting": "[5]; after washing", "value": "> 72", "unit": "h"}]}
{"substance": "DWWWDGFERLEE (synthetic genetically encoded small illuminant (GESI) malachite green (MG) binding Peptide 2)", "values": [{"measurement": "Binding characteristics in solution studies", "setting": "[6]", "value": "strong binding characteristics"}, {"measurement": "Increase of MG binding affinity by calcium", "setting": "[7]", "value": "about 10 fold"}, {"measurement": "Increase of MG binding affinity by calcium", "setting": "[7]; listed as peptide 2", "value": 10, "unit": "fold"}, {"measurement": "Sensitivity to calcium upon acetylcholine stimulation", "setting": "HEK293 cells", "value": "showed sensitivity to calcium"}, {"measurement": "Increase of MG fluorescence intensity upon Ach addition", "setting": "HEK293 cells; living cells", "value": 4, "unit": "fold"}, {"measurement": "MG binding", "setting": "[8]", "value": "++"}]}
{"substance": "DWWDWGNHGYTE [Peptide 12]", "values": [{"measurement": "Binding characteristics in solution studies", "setting": "[6]", "value": "strong binding characteristics"}, {"measurement": "Kd", "setting": "[6]; binding to MG, read-out: binding affinity", "value": 0.41, "unit": "nM"}, {"measurement": "Kd", "setting": "[6]; peptide in solution, 2 mM Ca2+, one-site specific binding, read-out: Kd", "value": "~0.41", "unit": "nM"}]}
{"substance": "GLFDQES(P)GRGK (GLFDQE[pS]GRGK)", "values": [{"measurement": "DMHBI activation", "setting": "[3]", "value": "DMHBI activating"}]}
{"substance": "DPSWPNS(P)GRGK(Ac) (DPSWPN[pS]GRGK(Ac))", "values": [{"measurement": "DMHBI activation", "setting": "[3]", "value": "DMHBI activating"}]}
